# Experimental data as given in patent US20150306045A1, “METHOD OF REGULATING CIRCADIAN RHYTHM, AND METHOD OF PREPARING CIRCADIAN RHYTHM REGULATORY AGENT” (National Institute of Advanced Industrial Science & …, priority 2012, published 2015).
# Test system: clock gene Bmall promoter in NIH3T3 cells
# Test: Bmall promoter luciferase reporter, influence on expression of circadian clock gene (Test Example 1)
# Type: cell-based, mouse
# Conditions: Example 1, 12.5 μM in medium, NIH3T3, vs ethanol control, FIG. 1
# Method: The circadian rhythm regulatory agents of Examples 1 to 3 (i.e., 1,3-dihydroxy-5-n-pentadecylbenzene, alkylresorcinol-containing ethanolic bran extract, and alkylresorcinol-containing ethanolic rye extract) were evaluated for the influence on expression of circadian clock gene in accordance with the following test method.
# To prepare a recombination vector, the promoter regions of a clock gene Bmall (−97 to +27 regions including the RORE sequence and the transcription initiation site) were inserted into a luciferase luminescence vector containing a PEST sequence serving as a signal for rapid degradation of expressed proteins (pGL3-dLuc, from Promega). About 5×10^5 cells of mouse fibroblast cell line NIH3T3 were inoculated into a 35 mm diameter culture dish. […]
# Screening of candidate substances was performed using the culture cells. […] Then, a test substance was added to a medium containing a luciferin, (a luminescence substrate of […]), and chemiluminescence by the reporter genes was measured in real-time while continuing the cell culture. […] As a control, ethanol, which is the solvent of the test substance, was added at the same timing, and the changes in amount of luminescence were compared. Luminescence was measured for one minute at 10 minute interval using AB-2550 Kronos Dia from ATTO Corp.
smiles,measurement,value
"CCCCCCCCCCCCCCCc1cc(O)cc(O)c1 [Example 1, 1,3-Dihydhroxy-5-n-pentadecylbenzene (C15:0)]",circadian rhythm phase of Bmall expression,delays the circadian rhythm phase
same,shortening of the cycle of Bmall expression rhythm,0.5 h
